“Also recorded” adds a separate entry of the source.
How the values were obtained:
rat = experiment: Rat Comet assay; conditions: in vivo
CYP2C9 = target: T1, CYP2C9 (Homo sapiens, UniProt P11712); experiment: Clinical probe-substrate DDI study: S-warfarin; format: in vivo
T1 construct: endogenous in cells; host or cells: healthy human subjects (in vivo)
Experimental: The effect of voxelotor on the pharmacokinetics (PK) of a single dose of caffeine, warfarin sodium, omeprazole, and midazolam hydrochloride, which are probe substrates for cytochrome P450 (CYP)1A2, CYP2C9, CYP2C19, and CYP3A4, respectively, were studied in healthy subjects. During Period 1, subjects received a single dose of caffeine 100 mg, warfarin sodium 10 mg+vitamin K 10 mg, omeprazole 20 mg, and midazolam hydrochloride 2 mg on Day 1. During Period 2, subjects received voxelotor 900 mg QD on Days 1 and 2 followed by 600 mg QD on Day 3, a single dose of caffeine 100 mg, warfarin sodium 10 mg+vitamin K 10 mg, omeprazole 20 mg, and midazolam hydrochloride 2 mg on Day 4, and voxelotor 600 mg QD on Days 4 through 7.
Whole blood and plasma concentrations of voxelotor and plasma concentrations of caffeine, paraxanthine, S-warfarin, omeprazole, 5-hydroxyomeprazole, midazolam, and 1-hydroxymidazolam were determined using validated assays.

[1] = 72-week population pharmacokinetic analysis in patients with SCD; format: in vivo, human
CYP2D6 = target: T2, CYP2D6 (Homo sapiens, UniProt P10635); experiment: Effect of voxelotor on CYP450 enzymes in vivo: CYP2D6
T2 construct: endogenous in cells; host or cells: human subjects (in vivo)

pregnant rabbits = experiment: Embryo-fetal development study in rabbits; format: in vivo, rabbit; conditions: oral 25, 75, 150 mg/kg/day, gestation days 7 through 19
Experimental: In embryo-fetal development studies, voxelotor was administered orally to pregnant rats at 15, 50, and 250 mg/kg/day (gestation days 7 through 17) and rabbits at 25, 75, and 150 mg/kg/day (gestation days 7 through 19) through organogenesis.

BCRP = BCRP (Homo sapiens, UniProt Q9UNQ0); experiment: In vitro transporter study; format: in vitro ADME
Hb = experiment: Pharmacodynamics: Hb oxygen affinity (p50) and clinical measures of hemolysis; format: in vivo
[2] = system: patients with SCD aged 4 to 11 years; experiment: Open-label Phase 2 trial (part C): Hb response and hemolysis markers; format: in vivo, human
Excerpt: Patients and treatment: Patients with SCD were screened at 15 study sites in the United States, Lebanon, and the United Kingdom. Key inclusion criteria included patients with SCD (homozygous sickle cell disease [HbSS] or HbSβ^0 genotypes), aged 4 to 11 years, and with hemoglobin (Hb) concentrations ≤10.5 g/dL at baseline. Concomitant hydroxyurea was allowed if the dose was stable for ≥3 months at enrollment, with no anticipated need for dose adjustment during the study. There was no eligibility requirement regarding prior VOCs. Patients who were receiving chronic red blood cell transfusion therapy, had received a transfusion in the past 30 days, or had been hospitalized for a VOC, acute chest syndrome, splenic sequestration crisis, or dactylitis within 14 days before providing informed consent were excluded.
All patients received dispersible voxelotor tablets. Patients aged 4 to 11 years received once-daily voxelotor weight-based-dosing (Table 1).
(§1) Statistical analyses: All efficacy and safety assessments were summarized with descriptive statistics. Population PK analyses using nonlinear mixed-effects modeling were performed to characterize voxelotor PK in plasma and whole blood.
Patients 4 to <12 years received tablets for oral suspension based on body weight at baseline. OXBRYTA doses of 600 mg, 900 mg, or 1,500 mg once daily were administered to patients weighing 10 kg to <20 kg, 20 kg to <40 kg, or ≥40 kg, respectively. Patients 12 to <17 years received OXBRYTA 1,500 mg once daily.
Patients were included if their baseline hemoglobin (Hb) was <10.5 g/dL. Eligible patients on stable doses of hydroxyurea for at least 90 days were allowed to continue hydroxyurea therapy throughout the study.
Efficacy was based on Hb response rate, which is defined as a Hb increase of >1 g/dL from baseline to Week 24.

[3] = Population PK modeling of voxelotor in patients aged 4 to 11 years (part C); format: in vivo, human; conditions: 4-11 years, n=38; for % of patients with ≥20% Hb occupancy / % Hb occupancy: weight-based dosing; for % Hb occupancy: geometric mean (% CV) in Table 3
Experimental: Population PK modeling was used to determine the whole-blood and plasma PK parameters of voxelotor in the study population. The PK parameters included maximum whole blood or plasma concentration (Cmax), area under the concentration-time curve (AUC), terminal elimination half-life (t1/2), and percent Hb occupancy.
as §1

[4] = Tablet for oral suspension versus oral tablet exposure in healthy subjects; format: in vivo, human
patients treated = experiment: Hypersensitivity reactions in treated patients; conditions: human, in vivo
QT interval = experiment: Cardiac electrophysiology (QT interval); format: in vivo; conditions: plasma concentrations approximately 2-fold above therapeutic concentrations
[5] = Clinical DDI: acid reducing agent omeprazole on voxelotor; conditions: in vivo
[6] = Clinical pharmacokinetics after oral administration; format: in vivo, human
rats = experiment: Fertility and early embryonic development study; format: in vivo, rat
Experimental: In a fertility and early embryonic development study, voxelotor was administered orally to rats at 15, 50, and 250 mg/kg/day. Males were dosed 28 days prior to mating through cohabitation and females were dosed 14 days prior to mating through gestation Day 7.

[7] = 4 to 11 years, weight-based dosing

Sequence of BCRP (Q9UNQ0 whole entry, species assumed): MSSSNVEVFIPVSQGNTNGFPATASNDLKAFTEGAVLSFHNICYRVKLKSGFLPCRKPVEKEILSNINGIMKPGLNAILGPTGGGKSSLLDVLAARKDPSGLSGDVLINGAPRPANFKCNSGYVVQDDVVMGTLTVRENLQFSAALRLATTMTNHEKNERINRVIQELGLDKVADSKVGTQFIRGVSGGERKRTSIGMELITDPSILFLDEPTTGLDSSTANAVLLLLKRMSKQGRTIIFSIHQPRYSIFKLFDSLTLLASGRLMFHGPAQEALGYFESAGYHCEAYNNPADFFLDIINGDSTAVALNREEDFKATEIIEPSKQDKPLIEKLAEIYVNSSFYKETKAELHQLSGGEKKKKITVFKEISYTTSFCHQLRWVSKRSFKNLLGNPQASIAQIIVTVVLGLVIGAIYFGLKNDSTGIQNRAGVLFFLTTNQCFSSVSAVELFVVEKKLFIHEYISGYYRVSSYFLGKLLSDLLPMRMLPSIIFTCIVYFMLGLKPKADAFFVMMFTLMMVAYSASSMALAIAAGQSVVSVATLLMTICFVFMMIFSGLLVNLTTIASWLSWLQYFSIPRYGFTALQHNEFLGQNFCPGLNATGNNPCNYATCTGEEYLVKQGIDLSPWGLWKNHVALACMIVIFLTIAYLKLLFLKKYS
T1 sequence (P11712 whole entry): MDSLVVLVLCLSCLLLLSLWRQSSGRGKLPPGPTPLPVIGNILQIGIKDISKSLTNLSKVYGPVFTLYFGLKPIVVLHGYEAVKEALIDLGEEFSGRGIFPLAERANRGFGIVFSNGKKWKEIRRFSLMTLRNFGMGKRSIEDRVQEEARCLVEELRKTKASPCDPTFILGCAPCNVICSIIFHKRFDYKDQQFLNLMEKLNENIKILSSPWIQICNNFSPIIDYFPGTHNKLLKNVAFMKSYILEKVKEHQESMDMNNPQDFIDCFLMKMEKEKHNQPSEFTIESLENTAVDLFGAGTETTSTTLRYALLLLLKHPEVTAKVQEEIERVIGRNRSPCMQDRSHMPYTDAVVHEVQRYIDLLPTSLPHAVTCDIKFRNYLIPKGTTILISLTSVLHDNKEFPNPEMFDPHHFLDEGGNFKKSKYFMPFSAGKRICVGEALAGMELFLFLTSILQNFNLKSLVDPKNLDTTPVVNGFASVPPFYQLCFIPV
T2 sequence (P10635 whole entry): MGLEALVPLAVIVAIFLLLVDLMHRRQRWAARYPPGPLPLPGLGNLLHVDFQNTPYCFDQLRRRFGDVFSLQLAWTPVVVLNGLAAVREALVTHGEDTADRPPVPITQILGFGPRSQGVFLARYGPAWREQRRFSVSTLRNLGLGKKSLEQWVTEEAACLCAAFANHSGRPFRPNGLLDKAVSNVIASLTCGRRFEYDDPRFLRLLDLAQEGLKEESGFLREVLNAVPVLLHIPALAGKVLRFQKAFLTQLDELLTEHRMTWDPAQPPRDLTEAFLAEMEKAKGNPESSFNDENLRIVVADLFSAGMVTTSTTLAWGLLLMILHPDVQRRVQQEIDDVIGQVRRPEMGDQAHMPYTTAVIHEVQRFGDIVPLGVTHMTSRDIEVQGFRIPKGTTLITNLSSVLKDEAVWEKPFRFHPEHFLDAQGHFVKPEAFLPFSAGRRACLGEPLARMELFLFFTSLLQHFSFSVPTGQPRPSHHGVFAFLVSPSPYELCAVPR

Question: Which results are given for `CC(C)n1nccc1-c1ncccc1COc1cccc(O)c1C=O` [voxelotor, 2-hydroxy-6-((2-(1-isopropyl-1H-pyrazol-5-yl)pyridin-3-yl)methoxy)benzaldehyde]?
Answer: genotoxicity, rat Comet assay (rat): not genotoxic; effect of voxelotor on PK of CYP2C9 probe substrate S-warfarin (CYP2C9; healthy subjects, voxelotor 900/600 mg QD, warfarin sodium 10 mg): no clinically meaningful effect; CYP2C9 inhibition in vivo (CYP2C9; human, in vivo): not; AUC0-24 h, whole blood ([1]; 1,500 mg, geometric mean): 3,830 μg · hr/mL; Cmax, whole blood ([1]; 1,500 mg, geometric mean): 180 µg/mL; differences in PK based on age (12 to 59 years), sex, body weight (28 to 135 kg), mild to severe renal impairment ([1]; human, in vivo): No clinically significant differences; Cmax ([1]; human, plasma, oral, 1500 mg, 1,500 mg, geometric mean): 14 µg/mL; half-life ([1]; human, plasma, oral, 1500 mg, 1,500 mg, geometric mean, patients with SCD, read-out: Half-life (terminal elimination), plasma (converted)): 38.7 h; AUC(0-t) ([1]; human, plasma, oral, 1500 mg, 1,500 mg, geometric mean, read-out: AUC0-24 h, plasma): 278 µg·h/mL; Vd ([1]; human, plasma, oral, read-out: apparent volume of distribution of the central compartment): 333 L; apparent volume of distribution of the peripheral compartment ([1]; plasma): 72.3 L; apparent oral clearance ([1]; plasma, patients with SCD): 6.1 L/h; exposures in whole blood and plasma, pediatric patients 4 to <17 years vs adults ([1]; recommended dosage): similar; CYP2D6 inhibition in vivo (CYP2D6): not; developmental outcome (pregnant rabbits): no adverse developmental effects; also recorded: no evidence of adverse developmental outcomes; BCRP inhibition (BCRP): not an inhibitor; substrate of BCRP (BCRP): not a substrate; clinical measures of hemolysis (indirect bilirubin and % reticulocytes) (Hb; in vivo): dose-dependent reduction; Hb oxygen affinity as determined by change in p50 (Hb; linearly correlated with voxelotor exposure): dose-dependent increase; mean change in Hb from baseline at week 24 ([2]; 4 to 11 years, once-daily weight-based 600/900/1500 mg dispersible tablets, n=34): 1.0 g/dL; patients with Hb response (>1.0 g/dL increase from baseline) at week 2 [2, 7]: 54.5%; patients with an increase in Hb of any magnitude from baseline at week 24 [2, 7]: 82%; patients with >2.0 g/dL increase in Hb from baseline at week 24 ([2]; 4 to 11 years, weight-based dosing, n=7/34): 21%; patients with >1.5 g/dL increase in Hb from baseline at week 24 ([2]; 4 to 11 years, weight-based dosing, n=12/34): 35%; patients with Hb response (increase >1.0 g/dL from baseline) at week 24 ([2]; 4 to 11 years, weight-based dosing, n=34): 47.1%; Hb response rate (Hb increase >1 g/dL from baseline to Week 24) ([2]; patients 4 to <12 years who took at least one dose (16/45)): 36%; mean percent change from baseline in indirect bilirubin ([2]; week 24, n=28): −38.6%; mean percent change from baseline in percent reticulocyte count ([2]; week 24, n=31): −3.25%; mean percent change from baseline in lactate dehydrogenase ([2]; week 24, n=32): −2.6%; % of patients with ≥20% Hb occupancy [3]: Approximately 76%; % of patients with ≥20% Hb occupancy ([3]; listed as Voxelotor): 76.3%; % Hb occupancy [3]: 26%; % Hb occupancy ([3]; listed as Voxelotor): 26.16 (32.2) %; Cmax ([3]; human, whole blood, oral, geometric mean (% CV), 600/900/1500 mg weight-based): 148 µg/mL; AUC(0-t) ([3]; human, whole blood, oral, geometric mean (% CV), 600/900/1500 mg weight-based, read-out: AUC0-24 h, whole blood): 3260 µg·h/mL; half-life ([3]; human, whole blood, oral, geometric mean (% CV), read-out: t1/2, whole blood (converted)): 27.2 h; exposures, tablet for oral suspension dispersed in water vs oral tablet swallowed whole [4]: comparable; serious hypersensitivity reactions, patients treated (patients treated): < 1%; QT interval prolongation (QT interval): does not prolong QT interval to any clinically relevant extent; effect of omeprazole (proton pump inhibitor) on voxelotor exposure [5]: did not alter voxelotor exposure; time to steady-state after repeated administration ([6]; patients with SCD): ≤ 8 days; dose linearity of PK ([6]; single or multiple doses, whole blood, plasma, RBCs): linear; sperm morphology (rats; 250 mg/kg/day): changes in sperm morphology; sperm motility (rats; 250 mg/kg/day): decreased; fertility or reproductive function (rats; oral 15, 50, 250 mg/kg/day): no effect on fertility or reproductive function; exposure at 250 mg/kg/day relative to human exposure at 1,500 mg/day (rats; rat, in vivo): approximately 5 times

Reference: US20260158014A1, “METHODS OF ADMINISTERING VOXELOTOR” (Global Blood Therapeutics, Inc., priority 2021, published 2026)
